# Measured values from patent US20230165873A1, “Methods of Use for Single Molecule Compounds Providing Multi-Target Inhibition to Treat Covid 19” (priority 2020, published 2023).
# What was measured:
# CDK6 cyclinD1 = CDK6 cyclinD1 (Homo sapiens, UniProt Q00534); assay: CDK6 cyclinD1 in vitro inhibition; format: biochemical
# Procedure: (§1) The kinase or bromodomain inhibitory activity of a compound of the invention can be determined by routine methods known to the skilled artisan without undue experimentation, or by procuring relevant analysis by a commercial vendor offering such services. […] In vivo, PI3K inhibition can be determined from target tissue biopsies by standard tissue processing in which cells are disrupted and Western Blot analysis is performed to determine the presence or absence of pAKT (substrate of PI3K) relative to a control sample. PI3K inhibition assays and BTK inhibition assays are known in the art and can be procured commercially through vendors such as Reaction Biology (Malvern, PA). The activity of a compound of the invention as an inhibitor of a bromodomain-containing protein, such as a BET protein, including BRD2, BRD3, BRD4, and/or BRDT, or an isoform or mutant thereof, may be determined in vitro, in vivo, or in a cell line. In vitro assays include assays that determine inhibition of bromodomain-containing proteins. Alternatively, inhibitor binding may be determined by running a competition experiment where a provided compound is incubated with a bromodomain-containing protein, such as a BET protein bound to known ligands, labeled or unlabeled. In vitro bromodomain inhibition assays can be performed using Alpha Screen Technology (Perkin Elmer Life and Analytical Sciences, Shelton, CT). In vivo bromodomain inhibition can be determined indirectly by evaluating the amount of a protein whose gene transcription is influenced or controlled by the bromodomain protein, for example, MYCN protein transcription is controlled by BRD4 (J.E. Delmore et al., Cell 2011, 146, 904-917; A. Puissant, Cancer Discov. 2013, 3, 308-323).
# (§2) IC50 inhibition data against the indicated targets were determined for compounds of the invention using standard in vitro assays (Tables 8 and 9).
# BRD4-1 = target: T1, BRD4-1 (Homo sapiens, UniProt O60885); assay: BRD4-1 in vitro inhibition; format: binding
# T1 construct: BRD4-1
# Procedure: as §1
# PI3K alpha = PI3K alpha (Homo sapiens, UniProt P42336); assay: PI3K alpha in vitro inhibition; format: biochemical
# Procedure: as §1
# PI3K beta = PI3K beta (Homo sapiens, UniProt P42338); assay: PI3K beta in vitro inhibition; format: biochemical
# Procedure: as §1
# CDK4 cyclinD1 = CDK4 cyclinD1 (Homo sapiens, UniProt P11802); assay: CDK4 cyclinD1 in vitro inhibition; format: biochemical
# Procedure: as §1, §2
# PI3K gamma = PI3K gamma (Homo sapiens, UniProt P48736); assay: PI3K gamma in vitro inhibition; format: biochemical; conditions: read-out: IC50 inhibition PI3K gamma
# Procedure: as §1, §2
# BRD4-2 = target: T2, BRD4-2 (Homo sapiens, UniProt O60885); assay: BRD4-2 in vitro inhibition; format: binding
# T2 construct: BRD4-2
# Procedure: as §1
# BTK C481S = BTK C481S (Homo sapiens, UniProt Q06187, C481S); assay: BTK C481S in vitro inhibition; format: biochemical
# Procedure: as §1, §2
# BTK = BTK (Homo sapiens, UniProt Q06187); assay: BTK in vitro inhibition; format: biochemical
# Procedure: as §1, §2
# Chain of CDK4 cyclinD1 (P11802 whole entry): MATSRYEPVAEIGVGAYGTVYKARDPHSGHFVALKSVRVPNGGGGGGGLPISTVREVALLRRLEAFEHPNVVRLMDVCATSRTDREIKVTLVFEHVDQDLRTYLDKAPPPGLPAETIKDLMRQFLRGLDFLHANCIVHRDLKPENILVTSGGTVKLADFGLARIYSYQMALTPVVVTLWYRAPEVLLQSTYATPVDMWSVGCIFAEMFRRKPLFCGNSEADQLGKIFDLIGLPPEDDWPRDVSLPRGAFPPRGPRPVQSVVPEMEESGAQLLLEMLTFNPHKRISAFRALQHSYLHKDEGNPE
# Chain of CDK4 cyclinD1 (P24385 whole entry partner): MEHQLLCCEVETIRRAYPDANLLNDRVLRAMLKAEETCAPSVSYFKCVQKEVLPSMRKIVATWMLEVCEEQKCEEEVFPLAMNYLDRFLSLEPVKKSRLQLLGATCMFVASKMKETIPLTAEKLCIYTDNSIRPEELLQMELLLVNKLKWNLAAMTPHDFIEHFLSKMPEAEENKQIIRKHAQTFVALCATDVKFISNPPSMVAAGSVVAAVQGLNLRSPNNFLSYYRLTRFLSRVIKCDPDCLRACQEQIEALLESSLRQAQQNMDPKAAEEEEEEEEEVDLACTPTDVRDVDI
# Chain of CDK6 cyclinD1 (Q00534 whole entry): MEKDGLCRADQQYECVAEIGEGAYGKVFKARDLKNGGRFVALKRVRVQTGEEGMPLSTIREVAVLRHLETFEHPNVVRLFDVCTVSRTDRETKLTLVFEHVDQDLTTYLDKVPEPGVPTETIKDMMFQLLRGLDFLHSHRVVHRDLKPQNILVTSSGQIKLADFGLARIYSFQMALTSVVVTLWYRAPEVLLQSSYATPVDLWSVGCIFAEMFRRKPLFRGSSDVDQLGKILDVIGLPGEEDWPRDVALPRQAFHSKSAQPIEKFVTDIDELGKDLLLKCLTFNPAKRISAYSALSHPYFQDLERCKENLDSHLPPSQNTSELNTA
# Chain of CDK6 cyclinD1 (P24385 whole entry partner): as the sequence (P24385 whole entry partner) above
# Chain of PI3K gamma (P48736 whole entry): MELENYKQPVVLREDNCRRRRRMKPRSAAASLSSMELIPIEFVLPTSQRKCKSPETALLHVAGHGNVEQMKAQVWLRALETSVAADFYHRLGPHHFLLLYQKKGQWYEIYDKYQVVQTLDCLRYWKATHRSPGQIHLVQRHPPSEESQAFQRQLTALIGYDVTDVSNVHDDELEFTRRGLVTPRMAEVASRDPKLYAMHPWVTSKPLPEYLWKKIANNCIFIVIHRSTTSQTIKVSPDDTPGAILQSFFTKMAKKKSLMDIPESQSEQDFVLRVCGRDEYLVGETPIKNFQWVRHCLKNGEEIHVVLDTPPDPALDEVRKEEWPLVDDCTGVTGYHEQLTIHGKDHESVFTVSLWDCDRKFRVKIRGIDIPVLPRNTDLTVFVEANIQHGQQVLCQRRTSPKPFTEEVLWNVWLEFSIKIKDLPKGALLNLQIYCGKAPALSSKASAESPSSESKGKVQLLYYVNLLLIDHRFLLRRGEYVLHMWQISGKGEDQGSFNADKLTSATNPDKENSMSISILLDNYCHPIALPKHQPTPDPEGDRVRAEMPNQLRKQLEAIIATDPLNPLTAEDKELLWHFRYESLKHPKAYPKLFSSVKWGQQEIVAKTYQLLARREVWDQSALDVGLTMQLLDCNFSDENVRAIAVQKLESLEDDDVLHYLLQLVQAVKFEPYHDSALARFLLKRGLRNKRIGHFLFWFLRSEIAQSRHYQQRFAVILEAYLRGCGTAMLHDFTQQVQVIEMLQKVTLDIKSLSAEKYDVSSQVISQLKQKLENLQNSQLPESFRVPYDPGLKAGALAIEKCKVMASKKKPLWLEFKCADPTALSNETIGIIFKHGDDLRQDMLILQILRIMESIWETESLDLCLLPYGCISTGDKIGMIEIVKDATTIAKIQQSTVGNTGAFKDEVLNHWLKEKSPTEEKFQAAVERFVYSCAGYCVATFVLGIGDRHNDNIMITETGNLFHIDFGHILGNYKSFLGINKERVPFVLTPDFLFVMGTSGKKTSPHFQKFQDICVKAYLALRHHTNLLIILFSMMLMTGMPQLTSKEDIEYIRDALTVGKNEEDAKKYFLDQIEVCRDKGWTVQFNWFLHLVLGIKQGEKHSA
# Chain of BTK (Q06187 whole entry): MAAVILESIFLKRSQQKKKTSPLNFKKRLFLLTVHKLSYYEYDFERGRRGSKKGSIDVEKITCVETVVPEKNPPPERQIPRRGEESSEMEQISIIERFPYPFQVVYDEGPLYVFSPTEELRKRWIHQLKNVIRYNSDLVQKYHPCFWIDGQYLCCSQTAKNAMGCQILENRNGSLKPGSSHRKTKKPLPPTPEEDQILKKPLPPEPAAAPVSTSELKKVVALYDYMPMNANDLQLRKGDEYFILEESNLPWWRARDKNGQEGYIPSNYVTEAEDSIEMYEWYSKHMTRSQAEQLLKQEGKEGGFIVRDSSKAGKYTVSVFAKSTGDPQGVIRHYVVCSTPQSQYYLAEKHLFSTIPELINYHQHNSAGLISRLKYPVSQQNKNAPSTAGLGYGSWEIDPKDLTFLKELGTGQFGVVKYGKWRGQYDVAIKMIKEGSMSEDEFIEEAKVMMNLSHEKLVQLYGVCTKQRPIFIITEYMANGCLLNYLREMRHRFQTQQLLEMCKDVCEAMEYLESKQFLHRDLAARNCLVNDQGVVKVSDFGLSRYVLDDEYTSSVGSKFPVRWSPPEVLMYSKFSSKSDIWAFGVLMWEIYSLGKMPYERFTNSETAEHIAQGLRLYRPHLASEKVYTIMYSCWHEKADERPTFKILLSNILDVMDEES
# Chain of PI3K alpha (P42336 whole entry): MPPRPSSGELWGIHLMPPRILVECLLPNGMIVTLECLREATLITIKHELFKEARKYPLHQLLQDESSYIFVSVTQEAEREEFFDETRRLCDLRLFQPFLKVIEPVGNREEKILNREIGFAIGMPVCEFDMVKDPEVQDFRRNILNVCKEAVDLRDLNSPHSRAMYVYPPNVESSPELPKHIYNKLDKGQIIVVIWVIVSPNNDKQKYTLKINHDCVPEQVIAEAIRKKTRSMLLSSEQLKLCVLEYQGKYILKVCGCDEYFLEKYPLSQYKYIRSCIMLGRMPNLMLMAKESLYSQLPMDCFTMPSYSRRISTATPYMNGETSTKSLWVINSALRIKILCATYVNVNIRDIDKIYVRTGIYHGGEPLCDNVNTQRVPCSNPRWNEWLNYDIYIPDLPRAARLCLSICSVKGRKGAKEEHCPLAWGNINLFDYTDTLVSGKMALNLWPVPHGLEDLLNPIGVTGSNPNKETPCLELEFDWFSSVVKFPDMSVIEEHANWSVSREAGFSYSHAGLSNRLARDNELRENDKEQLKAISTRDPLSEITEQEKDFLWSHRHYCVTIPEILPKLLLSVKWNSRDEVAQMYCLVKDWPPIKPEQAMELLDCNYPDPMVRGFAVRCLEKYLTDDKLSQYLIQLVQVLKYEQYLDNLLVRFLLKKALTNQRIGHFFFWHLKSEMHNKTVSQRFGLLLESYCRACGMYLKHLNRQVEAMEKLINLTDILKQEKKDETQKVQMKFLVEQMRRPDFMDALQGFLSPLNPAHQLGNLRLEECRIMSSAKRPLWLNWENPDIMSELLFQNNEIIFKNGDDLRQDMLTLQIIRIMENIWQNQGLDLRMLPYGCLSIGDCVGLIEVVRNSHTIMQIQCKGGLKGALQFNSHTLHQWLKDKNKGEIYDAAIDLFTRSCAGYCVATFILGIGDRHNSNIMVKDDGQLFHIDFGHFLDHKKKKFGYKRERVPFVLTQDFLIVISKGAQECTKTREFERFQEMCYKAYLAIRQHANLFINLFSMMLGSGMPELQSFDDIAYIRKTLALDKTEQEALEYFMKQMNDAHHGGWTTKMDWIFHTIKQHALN
# Chain of PI3K alpha (P27986 whole entry partner): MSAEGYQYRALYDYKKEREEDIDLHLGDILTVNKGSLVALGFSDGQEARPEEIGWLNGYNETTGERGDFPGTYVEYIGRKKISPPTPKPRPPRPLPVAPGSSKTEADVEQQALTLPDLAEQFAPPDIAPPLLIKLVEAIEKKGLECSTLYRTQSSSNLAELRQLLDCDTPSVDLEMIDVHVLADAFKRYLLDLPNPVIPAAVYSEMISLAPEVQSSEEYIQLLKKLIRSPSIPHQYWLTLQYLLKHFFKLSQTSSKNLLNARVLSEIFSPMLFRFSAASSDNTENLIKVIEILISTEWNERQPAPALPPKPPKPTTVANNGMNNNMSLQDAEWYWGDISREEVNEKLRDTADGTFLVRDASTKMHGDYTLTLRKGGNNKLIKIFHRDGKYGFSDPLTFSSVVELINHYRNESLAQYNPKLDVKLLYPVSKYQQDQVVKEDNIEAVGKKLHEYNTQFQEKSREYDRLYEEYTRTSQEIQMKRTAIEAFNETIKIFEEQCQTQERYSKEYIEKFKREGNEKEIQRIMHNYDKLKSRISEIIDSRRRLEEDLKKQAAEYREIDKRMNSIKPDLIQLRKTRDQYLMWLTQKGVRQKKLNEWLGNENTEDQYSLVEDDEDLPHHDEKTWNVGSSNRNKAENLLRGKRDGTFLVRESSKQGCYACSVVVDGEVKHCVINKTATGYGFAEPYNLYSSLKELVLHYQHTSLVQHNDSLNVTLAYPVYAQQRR
# Chain of BTK C481S (Q06187 whole entry C481S): as the sequence (Q06187 whole entry) above, with C481S counted along it
SMILES,IC50 (CDK6 cyclinD1) [nM],IC50 (BRD4-1) [nM],IC50 (PI3K alpha) [nM],IC50 (PI3K beta) [nM],IC50 (CDK4 cyclinD1) [nM],IC50 (PI3K gamma) [µM],IC50 (BRD4-2) [µM],IC50 (BTK C481S) [µM],IC50 (BTK) [nM]
O=C(O)c1cc2cnc(Nc3ccc(-c4csc5c(=O)cc(N6CCOCC6)oc45)cc3)nc2n1C1CCCC1 [Compound 23],< 500,500 to 1000,< 500,< 500,< 500,< 0.5,1 to 10,–,–
CN(C)C(=O)c1cc2cnc(Nc3ccc(-c4csc5c(=O)cc(N6CCN(C(=O)OC(C)(C)C)CC6)oc45)cc3)nc2n1C1CCCC1 [Compound 10],< 500,500 to 1000,1000 to 10000,500 to 1000,< 500,1 to 10,1 to 10,–,–
CNC(=O)c1cc2cnc(Nc3ccc(C#Cc4csc5c(=O)cc(N6CCOCC6)oc45)cc3)nc2n1C1CCCC1 [Compound 17],< 500,1000 to 10000,< 500,< 500,< 500,0.5 to 1,10 to 45,–,–
CN(C)C(=O)c1cc2cnc(Nc3ccc(-c4csc5c(=O)cc(N6CCOCC6)oc45)c(C(=O)O)c3)nc2n1C1CCCC1 [Compound 15],500 to 1000,10000 to 45000,< 500,< 500,1000 to 10000,1 to 10,10 to 45,–,–
CCCCC/C=C/C(=O)Nc1cccc(-c2csc3c(=O)cc(N4CCOCC4)oc23)c1 [Compound 34],–,–,–,1000 to 10000,–,10 to 45,10 to 45,> 45,> 45000
C=CC(=O)N1CCOc2ccc(-c3csc4c(=O)cc(N5CCN(C(=O)OC(C)(C)C)CC5)oc34)cc21 [Compound 29],–,500 to 1000,10000 to 45000,1000 to 10000,–,10 to 45,–,10 to 45,< 500
CN(C)C(=O)c1cc2cnc(Nc3csc4c(=O)cc(N5CCOCC5)oc34)nc2n1C1CCCC1 [Compound 12],> 45000,10000 to 45000,1000 to 10000,< 500,1000 to 10000,> 45,10 to 45,–,–
CNC(=O)c1cc2cnc(Nc3ccc(-c4csc5c(=O)cc(N6CCOCC6)oc45)cc3)nc2n1C1CCCC1 [Compound 16],< 500,< 500,< 500,< 500,< 500,1 to 10,< 0.5,–,–
COC(=O)c1cc(-c2csc3c(=O)cc(N4CCN(C(=O)OC(C)(C)C)CC4)oc23)cc2c1OCCO2 [Compound 5],–,< 500,< 500,1000 to 10000,–,< 0.5,> 45,–,–
CN(C)C(=O)c1cc2cnc(Nc3cccc(-c4csc5c(=O)cc(N6CCOCC6)oc45)c3)nc2n1C1CCCC1 [Compound 18],< 500,1000 to 10000,500 to 1000,< 500,< 500,1 to 10,0.5 to 1,–,–
O=C(NCc1cccnc1)c1cc(-c2csc3c(=O)cc(N4CCOCC4)oc23)cc2c1OCCO2 [Compound 2],–,< 500,< 500,< 500,–,< 0.5,< 0.5,–,–
O=C(C1=CCCC1)N1CCOc2ccc(-c3csc4c(=O)cc(N5CCOCC5)oc34)cc21 [Compound 41],–,–,–,–,–,–,–,–,1000 to 10000
CN(C)C(=O)c1cc2cnc(Nc3ccc(-c4csc5c(=O)cc(N6CCOCC6)oc45)c(C(=O)NCCN)c3)nc2n1C1CCCC1 [Compound 22],< 500,> 45000,500 to 1000,< 500,< 500,10 to 45,1 to 10,–,–
C=CC(=O)N1CCOc2ccc(-c3csc4c(=O)cc(N5CCN(C)CC5)oc34)cc21 [Compound 28],–,–,10000 to 45000,1000 to 10000,–,> 45,10 to 45,–,< 500
CN(C)C(=O)c1cc2cnc(Nc3ccc(-c4csc5c(=O)cc(N6CCNCC6)oc45)cc3)nc2n1C1CCCC1 [Compound 9],< 500,< 500,10000 to 45000,10000 to 45000,< 500,10 to 45,0.5 to 1,–,–
